Results as given in patent US11952362B2, “Compositions and methods for treating epigenetic disease” (The Regents of the University of California, priority 2018, dated 2024).
Entries after “also recorded” stand apart in the source; their conditions may differ.

Key:
HDAC4 = target: T1, HDAC4 (Homo sapiens, UniProt P56524); test: Fluorogenic HDAC4 activity assay; format: biochemical; details: fluorogenic assay kit, in words
T1 construct: purchased BPS Bioscience 50064
Experimental: (§1) To measure the effects of MJK-001, -004, -006 and -008 on HDAC4 & 9 activity fluorogenic HDAC9 (#50069) and HDAC4 (#50064) assay kits (BPS Bioscience) were used. Briefly, these assays consist of two steps; in the first one the HDAC fluorometric substrate containing an acetylated lysine side chain is incubated with purified HDAC9. In the second step, the deacetylation sensitizes the substrate so subsequent treatment with the lysine developer produces a fluorophore that was measured by a fluorescence reader.

[1] = test system: RT-112 bladder cancer cells; test: Cell viability assay (CellTiter Glo), RT-112; format: cell-based
Experimental: (§2) Pancreatic cancer cell lines (MIA PaCa-2 and CAPAN-2) were purchased from ATCC. MIA PaCa-2 were grown in DMEM and CAPAN-2 in McCoy's 5A (Gibco). Colon cancer cell lines (SW480 and HT-29) were purchased from ATCC. SW480 were grown in Leibovitz's L-15 (ATCC) and HT-29 in McCoy's 5A (Gibco). Lung cancer cell lines (NCI 460 and NCI 1975) were purchased from ATCC and grown in RPMI 1640 (Gibco). PC-3 prostate cancer cell line was purchased from ATCC and grown in F-12K (ATCC). Bladder cancer cell line 5637 was purchased from ATCC and RT-112 was purchased from Sigma-Aldrich and was grown in RPMI 1640 (Gibco). Bladder cancer cell lines, UMUC-9, UMUC-15 and UMUC-7 were purchased from MD Anderson and were grown in EMEM (ATCC). Bladder cancer cell line J82 was purchased from ATCC and was grown in EMEM (ATCC). SW1710 and EJ28 bladder cancer cell lines were purchased from DSMZ and were grown in DMEM (ATCC) and RPMI-1640 (Gibco), respectively. Bladder cancer cell line T24 was purchased from ATCC and grown in McCoy's 5A (Gibco). Bladder cancer cell line BC-3C was purchased from DSMZ and was grown in McCoy's 5A (Gibco). All media were supplemented with 10% FBS (Gemini Bioproducts) and 1% Antibiotic-Antimycotic (Gibco). In the case of MIA PaCa-2, medium was also supplemented with 2.5% horse serum (Gibco). NCM356 colon epithelial cell lines were growth in M3:10 (INCELL, San Antonio, Tex.). A CMV-driven-HDAC9 vector was used to overexpress HDAC9 levels in NCM356 cells. IL1B and TNFA mRNA levels were measured by qPCR analysis as described previously (Fang K et al. Am J Pathol, 188(3):586-99, 2018).
(§3) 1.8×10^3 cells/well were plated in quadruplicates in 96-well plate and treated with exogenously added MJK analogues 6 hours after plating. For the experiments performed to calculate the IC50s of HDAC9 analogues, a secondary treatment of exogenously added MJK analogues was performed 2 days later. Cell growth was assessed 1, 3, 5 or 7 days after plating using the CellTiter Glo Luminescence Cell Viability Assay (Promega) according to manufacturer's protocol. For the experiments where the effect of combinatorial treatment of MJK-004 analogues with chemotherapy was assessed, treatment of cells with gemcitabine (10 nM) or 5-fluouracil (2000 nM) was performed one day after MJK-004 treatment and the cells were further treated with exogenously added MJK analogues 2 days later. Cell growth was assessed 3, 4, 5 or 6 days after plating using the CellTiter Glo Luminescence Cell Viability Assay (Promega) according to manufacturer's protocol. Data are expressed as mean […] (arbitrary units)±S.D.
(§4) Cell Viability Assays were employed to determine the concentration of MJK analogues where the response is reduced by half. For each treatment of cancer cells, 1, 2, 5, 10 and 20 μM of MJK analogues were applied. GraphPad Prism 7 software was used to fit dose response curves. Relative Luciferase Activity Units were plotted against the log values of the doses used and the nonlinear regression model was used for data analysis.
MJK-001 effects on a cancer cell line panel: The effects of MJK-001 (20 uM) on cancer cell growth was evaluated in 9 cancer cell lines, consisting of bladder, colon, lung, prostate and pancreatic cancer cell lines. Cell growth was measured on day 5. Bladder cancer cell lines (RT-112, 5637) were more responsive to MJK-001 treatment, followed by the colon and pancreatic cancer cell lines shown in Table 3.

HDAC9 = target: T2, HDAC9 (Homo sapiens, UniProt Q9UKV0); test: Fluorogenic HDAC9 activity assay; format: biochemical; details: fluorogenic assay kit, in words
T2 construct: purchased BPS Bioscience 50069
T2 sequence (Q9UKV0 whole entry): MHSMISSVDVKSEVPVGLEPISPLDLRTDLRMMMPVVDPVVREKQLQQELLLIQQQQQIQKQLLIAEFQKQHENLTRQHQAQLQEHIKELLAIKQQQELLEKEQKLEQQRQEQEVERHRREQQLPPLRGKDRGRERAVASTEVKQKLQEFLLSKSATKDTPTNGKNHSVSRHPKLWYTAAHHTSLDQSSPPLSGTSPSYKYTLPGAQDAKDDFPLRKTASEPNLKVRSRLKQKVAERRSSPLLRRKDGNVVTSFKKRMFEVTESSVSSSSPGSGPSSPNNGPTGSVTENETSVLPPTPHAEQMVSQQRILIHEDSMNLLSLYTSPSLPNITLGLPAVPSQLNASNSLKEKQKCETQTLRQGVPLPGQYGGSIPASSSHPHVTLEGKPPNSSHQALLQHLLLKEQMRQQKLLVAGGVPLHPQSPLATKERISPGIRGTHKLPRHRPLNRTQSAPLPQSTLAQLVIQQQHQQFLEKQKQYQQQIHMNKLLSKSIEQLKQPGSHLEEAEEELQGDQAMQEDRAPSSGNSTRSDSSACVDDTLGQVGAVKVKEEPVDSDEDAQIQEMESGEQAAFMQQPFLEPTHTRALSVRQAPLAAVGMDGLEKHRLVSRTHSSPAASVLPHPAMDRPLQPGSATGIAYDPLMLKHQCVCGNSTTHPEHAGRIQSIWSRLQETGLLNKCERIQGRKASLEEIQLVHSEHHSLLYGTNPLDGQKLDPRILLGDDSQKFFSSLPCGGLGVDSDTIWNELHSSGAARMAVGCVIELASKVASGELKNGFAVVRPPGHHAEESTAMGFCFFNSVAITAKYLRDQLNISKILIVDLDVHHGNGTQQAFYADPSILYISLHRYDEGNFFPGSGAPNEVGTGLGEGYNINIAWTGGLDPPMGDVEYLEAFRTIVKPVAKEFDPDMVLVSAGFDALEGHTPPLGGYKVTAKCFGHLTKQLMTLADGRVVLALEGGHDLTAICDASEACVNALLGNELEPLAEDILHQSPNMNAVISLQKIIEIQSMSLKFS
Experimental: as §1

[2] = test system: UMUC9 bladder cancer cells; test: Cell viability assay (CellTiter Glo), UMUC9; format: cell-based; details: for IC50: UM-UC-9
Experimental: as §2, §3, §4

bladder cancer cells = test: Bladder cancer cell growth, overall finding; format: cell-based; details: in words
Experimental: as §3, §4
MJK-004 efficacy on bladder cancer cell growth and colony-formation ability: Based on the above findings, the MJK compounds were examined to determine if they had substantially better efficacy than MJK-001 to suppress bladder cancer cell growth by calculating the IC50 values.
The synthesized series of MJK chemical compounds have increased specificity for HDAC9 or HDAC4 isoforms. […] On the other hand, MJK-004 is highly efficient in blocking bladder cancer cell growth through regulation of HDAC4 isoform. MJK-006 and MJK-008 compounds have the potential to be developed as therapeutics for Crohn's Disease and other auto-immune diseases. […]

[3] = Homo sapiens, RT-112 cell growth

T1 sequence (P56524 whole entry): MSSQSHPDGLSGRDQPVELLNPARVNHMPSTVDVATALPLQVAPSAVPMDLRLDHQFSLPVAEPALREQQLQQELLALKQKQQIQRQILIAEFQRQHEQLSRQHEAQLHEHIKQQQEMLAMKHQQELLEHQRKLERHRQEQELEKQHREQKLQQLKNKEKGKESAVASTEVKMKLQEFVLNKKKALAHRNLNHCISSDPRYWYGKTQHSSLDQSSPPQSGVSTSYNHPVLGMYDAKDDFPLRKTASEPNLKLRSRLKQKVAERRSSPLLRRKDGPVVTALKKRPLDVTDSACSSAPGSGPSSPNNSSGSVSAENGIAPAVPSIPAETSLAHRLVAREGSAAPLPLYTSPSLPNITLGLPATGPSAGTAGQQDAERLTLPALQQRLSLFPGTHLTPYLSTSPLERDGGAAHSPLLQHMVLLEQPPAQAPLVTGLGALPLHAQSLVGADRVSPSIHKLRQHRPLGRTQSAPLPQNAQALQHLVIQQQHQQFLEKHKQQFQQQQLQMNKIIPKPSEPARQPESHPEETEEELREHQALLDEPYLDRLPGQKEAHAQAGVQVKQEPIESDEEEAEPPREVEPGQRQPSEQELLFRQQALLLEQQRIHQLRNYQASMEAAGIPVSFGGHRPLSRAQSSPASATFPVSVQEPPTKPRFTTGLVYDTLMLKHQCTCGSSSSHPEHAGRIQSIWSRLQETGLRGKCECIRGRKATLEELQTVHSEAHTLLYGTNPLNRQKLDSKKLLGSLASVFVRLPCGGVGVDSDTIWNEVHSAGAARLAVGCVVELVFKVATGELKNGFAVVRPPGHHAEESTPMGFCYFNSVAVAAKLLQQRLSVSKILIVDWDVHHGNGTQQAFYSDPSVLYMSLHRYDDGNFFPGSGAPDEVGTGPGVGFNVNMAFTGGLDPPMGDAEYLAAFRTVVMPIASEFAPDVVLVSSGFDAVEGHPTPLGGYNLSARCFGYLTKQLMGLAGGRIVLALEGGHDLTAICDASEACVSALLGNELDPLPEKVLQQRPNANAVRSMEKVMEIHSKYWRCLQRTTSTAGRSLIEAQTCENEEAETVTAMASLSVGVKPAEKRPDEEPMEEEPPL

Row | HDAC4 activity / specificity (HDAC4) | IC50 [1, 3] | HDAC9 activity / specificity (HDAC9) | IC50 ([2]; UMUC9 cell growth) | IC50 (uM) values ([1]; RT-112 cell growth) | IC50 (uM) values ([2]; UMUC9 cell growth) | Compound | inhibition at 20 µM ([1]; Homo sapiens, RT-112, 120 h, RT112, 20 uM, day 5, read-out: % growth inhibition) | effect on bladder cancer cell growth (bladder cancer cells) | cell growth, monotherapy ([1]; RT-112, days 4 & 5) | cell growth, combination with gemcitabine ([1]; RT-112, gemcitabine 10 nM, days 4 & 5) | cell growth, monotherapy ([2]; UMUC9, days 4 & 5) | cell growth, combination with gemcitabine ([2]; UMUC9, gemcitabine 10 nM, days 4 & 5) | HDAC9 activity / specificity (HDAC9; hydrochloride)
1 | partially blocks | 9.15 µM | partially blocks | 7.1 µM |  |  | Cn1c(/C=C/C(=O)NO)ccc1/C=C/C(=O)c1cccc(F)c1 [MJK001, (E)-3-(5-((E)-3-(3-Fluorophenyl)-3-oxoprop-1-en-1-yl)-1-methyl-1H-pyrrol-2-yl)-N-hydro-xyacrylamide] | 51% |  |  |  |  |  | 
2 | high specificity for HDAC4 | 2.37 µM | very low activity against HDAC9 | 3.97 µM |  |  | Cn1c(/C=C/C(=O)NO)ccc1/C=C/C(=O)c1cccs1 [MJK004, (E)-N-hydroxy-3-(1-methyl-5-((E)-3-oxo-3-(thiophen-2-yl)prop-1-en-1-yl)-1H-pyrrol-2-yl)acrylamide] |  | highest efficacy | suppressed bladder cancer growth in both cell lines as a monotherapy | increased gemcitabine's efficacy | suppressed bladder cancer growth in both cell lines as a monotherapy | increased gemcitabine's efficacy | 
3 | decreased HDAC4 specificity |  |  |  | ns | ns | Cl.Cn1c(/C=C/C(=O)NO)ccc1/C=C/C(=O)c1cccnc1 [MJK008, (E)-N-Hydroxy-3-(1-methyl-5-((E)-3-oxo-3-(pyridin-3-yl)prop-1-en-1-yl)-1H-pyrrol-2-yl)ac-rylamide hydrochloride] |  | did not have any effect |  |  |  |  | high specificity for the HDAC9 isoform; also recorded: significantly increased specificity of targeting the HDAC9 isoform

Row | Compound | HDAC4 activity / specificity (HDAC4) | IC50 [1, 3] | HDAC9 activity / specificity (HDAC9) | IC50 ([2]; UMUC9 cell growth) | IC50 (uM) values ([1]; RT-112 cell growth) | IC50 (uM) values ([2]; UMUC9 cell growth) | inhibition at 20 µM ([1]; Homo sapiens, RT-112, 120 h, RT112, 20 uM, day 5, read-out: % growth inhibition) | effect on bladder cancer cell growth (bladder cancer cells) | cell growth, monotherapy ([1]; RT-112, days 4 & 5) | cell growth, combination with gemcitabine ([1]; RT-112, gemcitabine 10 nM, days 4 & 5) | cell growth, monotherapy ([2]; UMUC9, days 4 & 5) | cell growth, combination with gemcitabine ([2]; UMUC9, gemcitabine 10 nM, days 4 & 5) | HDAC9 activity / specificity (HDAC9; hydrochloride)
4 | Cn1c(/C=C/C(=O)NO)ccc1/C=C/C(=O)c1cccnc1 [MJK006, (E)-N-hydroxy-3-(1-methyl-5-((E)-3-oxo-3-(pyridin-3-yl)prop-1-en-1-yl)-1H-pyrrol-2-yl)acrylamide] | decreased HDAC4 specificity | 38.3 µM | high specificity for the HDAC9 isoform; also recorded: significantly increased specificity of targeting the HDAC9 isoform | 19.8 µM |  |  |  | did not have any effect |  |  |  |  | 
